Data as given in patent US4798843A, “2-mercaproimidazole dopamine-β-hydroxylase inhibitors” (SmithKline Beckman Corporation, priority 1987, dated 1989).
Values belong to the compound of their own block, whether it stands above or below them.

How the values were obtained:
DBH [1] = biological target: T1, DBH (Homo sapiens, UniProt P09172); details: cited from earlier work
T1 sequence (P09172 1-617): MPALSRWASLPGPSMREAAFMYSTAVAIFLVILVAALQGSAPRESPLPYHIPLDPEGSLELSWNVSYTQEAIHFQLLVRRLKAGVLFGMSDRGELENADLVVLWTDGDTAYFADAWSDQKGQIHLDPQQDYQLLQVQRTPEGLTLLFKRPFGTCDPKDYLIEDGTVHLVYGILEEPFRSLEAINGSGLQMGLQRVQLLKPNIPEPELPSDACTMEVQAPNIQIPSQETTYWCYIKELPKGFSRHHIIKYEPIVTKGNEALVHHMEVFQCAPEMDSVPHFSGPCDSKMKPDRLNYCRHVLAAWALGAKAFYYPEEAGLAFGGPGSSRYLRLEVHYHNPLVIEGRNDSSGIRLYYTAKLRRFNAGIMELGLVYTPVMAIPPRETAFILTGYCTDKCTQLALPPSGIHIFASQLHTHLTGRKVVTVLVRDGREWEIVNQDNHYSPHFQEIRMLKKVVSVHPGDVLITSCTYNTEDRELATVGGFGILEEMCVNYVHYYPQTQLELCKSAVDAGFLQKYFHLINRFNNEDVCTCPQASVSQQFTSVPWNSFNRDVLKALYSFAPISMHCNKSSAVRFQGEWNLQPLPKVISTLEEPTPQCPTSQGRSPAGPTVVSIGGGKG

[2] = Ehrreich et al.; cited from earlier work
DBH [3] = biological target: T2, DBH (Bos taurus, UniProt P15101); experiment: in vitro DBH inhibition, conversion of tyramine to octopamine in the presence of DBH (spectrophotometric at 330 nm); format: biochemical; details: for DBH inhibition: @ 10^-4 (molar concentration); for IC50: molar concentration of compound at which DBH activity was halved
T2 sequence (P15101 1-610): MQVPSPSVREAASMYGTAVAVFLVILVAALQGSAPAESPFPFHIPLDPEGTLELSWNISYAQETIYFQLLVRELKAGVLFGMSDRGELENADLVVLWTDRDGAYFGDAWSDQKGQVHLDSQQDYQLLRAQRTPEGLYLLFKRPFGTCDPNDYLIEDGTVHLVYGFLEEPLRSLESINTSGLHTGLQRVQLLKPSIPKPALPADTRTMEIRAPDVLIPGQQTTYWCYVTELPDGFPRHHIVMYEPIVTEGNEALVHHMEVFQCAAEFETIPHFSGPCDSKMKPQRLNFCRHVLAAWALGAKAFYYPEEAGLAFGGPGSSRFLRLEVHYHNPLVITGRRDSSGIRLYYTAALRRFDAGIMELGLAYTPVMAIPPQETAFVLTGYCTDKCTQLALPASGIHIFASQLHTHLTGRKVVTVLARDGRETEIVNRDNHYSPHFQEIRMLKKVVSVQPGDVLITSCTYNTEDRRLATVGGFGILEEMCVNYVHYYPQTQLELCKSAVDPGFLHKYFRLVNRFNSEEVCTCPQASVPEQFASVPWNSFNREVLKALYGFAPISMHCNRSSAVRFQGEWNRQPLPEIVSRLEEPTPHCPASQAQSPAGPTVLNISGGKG
Procedure: Listed in Table I are Formula II compounds that were tested for in vitro DBH inhibition by a standard procedure for assaying conversion of tyramine to octopamine in the presence of DBH. J. J. Pisano, et al., Biochim. Biophys. Acta, 43, 566-568 (1960). Octopamine was assayed following sodium periodate oxidation to p-hydroxybenzaldehyde by measuring spectrophotometric absorbance at 330 nm. In Table I, inhibition is given in molar concentration of compound at which DBH activity was halved (IC50). Fusaric acid, by this test has an IC50 of 8×10^-7 M.

[4] = Teresawa et al.; cited from earlier work
[5] = mean arterial blood pressure in spontaneously hypertensive rats; format: in vivo; details: 50 mg/kg intraperitoneally
Procedure: Further, spontaneously hypertensive rats were treated with 5-benzyl-2-mercaptoimidazole at a dose of 50 mg/kg intraperitoneally, and mean arterial blood pressure was monitored for 260 minutes using indwelling cannulae in the tail arteries. […] The maximal blood pressure reduction was approximately 25 mmHg.

Compound: NOCc1ccccc1 [Benzyloxyamine]
- DBH inhibition (in words) (DBH [1]): apparently act as competitive inhibitors

Compound: NCCc1ccc(O)c(O)c1 [DA, dopamine]
- antihypertensive or vasodilator activity [2]: selective vasodilator activity at certain concentrations

- DBH inhibition (DBH [3]): 29%
Compound: Oc1ccc(CCCc2cnc(S)[nH]2)cc1 [5-(3-(4-Hydroxyphenyl)propyl)-2-mercaptoimidazole]

Compound: COc1ccc(Cc2cnc(S)[nH]2)cc1 [5-(4-Methoxybenzyl)-2-mercaptoimidazole]
- DBH inhibition (DBH [3]): 36%

Compound: CCCCc1ccc(C(=O)O)nc1 [Fusaric acid]
- hepatotoxicity [4]: hepatotoxic

Compound: NNCc1ccccc1 [benzylhydrazine]
- DBH inhibition (in words) (DBH [1]): apparently act as competitive inhibitors

- IC50 (DBH [3]): 400 µM
Compound: Oc1ccc(CCc2cnc(S)[nH]2)cc1 [5-(2-(4-Hydroxyphenyl)ethyl)-2-mercaptoimidazole]

Compound: phenylpicolinic acid
- DBH inhibitory activity relative to fusaric acid (DBH [1]; Runti et al.): twice the inhibitory activity of fusaric acid

Compound: Sc1ncc(Cc2ccccc2)[nH]1 [5-benzyl-2-mercaptoimidazole]
- time to significant blood pressure reductions vs vehicle-treated controls ([5]; indwelling cannulae in tail arteries): ≤ 30 min
- maximal blood pressure reduction ([5]; monitored for 260 minutes): approximately 25 mmHg
- time of lowest blood pressure ([5]; monitored for 260 minutes): exhibited their lowest blood pressures when monitoring was discontinued

- IC50 (DBH [3]): 100 µM
Compound: COc1ccc(CCCCc2cnc(S)[nH]2)cc1 [5-(4-(4-Methoxyphenyl)butyl)-2-mercaptoimidazole]

- IC50 (DBH [3]): 10 µM
Compound: Sc1ncc(CCCc2ccccc2)[nH]1 [5-(3-Phenylpropyl)-2-mercaptoimidazole]

- DBH inhibition (DBH [3]): 39%
Compound: COc1ccc(CCCc2cnc(S)[nH]2)cc1 [5-(3-(4-Methoxyphenyl)propyl)-2-mercaptoimidazole]

Compound: O=C(O)c1ccc(CCCCCl)cn1 [5 (4 chlorobutyl) picolinic acid]
- DBH inhibition (in words) (DBH [1]): inhibit DBH

- DBH inhibition (DBH [3]): 38%
Compound: COc1ccc(-c2cnc(S)[nH]2)cc1 [5-(4-Methoxyphenyl)-2-mercaptoimidazole]

- DBH inhibition (DBH [3]): 24%
Compound: Oc1ccc(CCCCc2cnc(S)[nH]2)cc1 [5-(4-(4-Hydroxyphenyl)butyl)-2-mercaptoimidazole]

- DBH inhibition (DBH [3]): 8.4%
Compound: COc1ccc(CCc2cnc(S)[nH]2)cc1 [5-(2-(4-Methoxyphenyl)ethyl)-2-mercaptoimidazole]

- IC50 (DBH [3]): 17 µM
Compound: Sc1ncc(CCc2ccccc2)[nH]1 [5-(2-Phenylethyl)-2-mercaptoimidazole]

- IC50 (DBH [3]): 100 µM
Compound: Sc1ncc(-c2ccc(Cl)cc2)[nH]1 [5-(4-Chlorophenyl)-2-mercaptoimidazole]

Compound: O=C(O)c1ccc(CCC(Br)CBr)cn1 (centres unmarked) [5-(3,4-dibromobutyl)picolinic acid]
- DBH inhibition (in words) (DBH [1]): DBH inhibitors

Compound: CN(C)C(=S)SCc1ccc(C(=O)O)nc1 [5-(dimethyldithiocarbamoylmethyl)picolinic acid]
- DBH inhibition (in words) (DBH [1]): DBH inhibitors

- IC50 (DBH [3]): 5500 µM
Compound: Sc1nc(-c2ccccc2)c[nH]1 [5-Phenyl-2-mercaptoimidazole]

Compound: CCCCc1ccc(C(N)=O)nc1 [Bupicomide, 5-(n-butyl)picolinamine]
- antihypertensive or vasodilator activity [2]: has antihypertensive activity
- DBH inhibition (in words) (DBH [1]): DBH inhibitor

- IC50 (DBH [3]): 100 µM
Compound: Sc1ncc(CCCCc2ccccc2)[nH]1 [5-(4-Phenylbutyl)-2-mercaptoimidazole]
